Where two headings read alike, the source gives them in different places.

For test [1], the system named is H1650. The test can be described thus: Non Small Cell Lung Cancer proliferation assay (Alamar Blue reduction), H1650. Type of test: cell-based, human. The note with it: Homo sapiens. In a few lines:
(§1)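 Dose-response run: cells were counted, dispensed at 250 cells/well onto compound, incubated 48 hours at 37° C, then incubated with Alamar Blue for an additional 48 hours before fluorescence measurement. All wells held 1% DMSO final.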
(In general: Alamar Blue is a resazurin reagent that responds to reducing activity.)

Test [2] relates to H2030. The test can be described thus: Non Small Cell Lung Cancer proliferation assay (Alamar Blue reduction), H2030. Type of test: cell-based, human. Particulars: Homo sapiens. In a few lines: as §1
Test [3] deals with H3255. As to the kind of experiment: Non Small Cell Lung Cancer proliferation assay (Alamar Blue reduction), H3255. Type of test: cell-based, human. Particulars: Homo sapiens. In a few lines:
as §1

The subject of test [4] is HPL1D (human peripheral lung epithelial) cell line. As to the kind of experiment: Cell proliferation / dose response (Alamar Blue), HPL1D. The note with it: HPL1D, 12 point doubling dilution 10 uM to 5 nM, 48 h treatment, alamar blue additional 48 h, read-out: IC50 HPL1D. Type of test: cell-based. In a few lines: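 Dose–response proliferation was run in HPL1D human peripheral lung epithelial cells. Compound treatment lasted 48 h at 37 C, followed by alamar blue for a further 48 h. Alamar blue reduction was the read-out.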

For test [5], the system named is H820. The test can be described thus: Dose response study (Alamar Blue), H820. Type of test: cell-based. Particulars: Homo sapiens, NCI-H820; H820; 12 point doubling dilution 10 uM to 5 nM; 48 h treatment, alamar blue additional 48 h; read-out: IC50 H820.
In test [6] the test system is PC9. As to the kind of experiment: Dose response study (Alamar Blue), PC9. The note with it: Homo sapiens, PC-9; PC9; 12 point doubling dilution 10 uM to 5 nM; 48 h treatment, alamar blue additional 48 h; read-out: IC50 PC9. Type of test: cell-based.
Test [7] has as its system A549. As to the kind of experiment: Dose response study (Alamar Blue), A549. Type of test: cell-based. The note with it: Homo sapiens; A549; 12 point doubling dilution 10 uM to 5 nM; 48 h treatment, alamar blue additional 48 h; read-out: IC50 A549.
Test [8] deals with H23. The test can be described thus: Dose response study (Alamar Blue), H23. Type of test: cell-based. The note with it: Homo sapiens, NCI-H23; H23; 12 point doubling dilution 10 uM to 5 nM; 48 h treatment, alamar blue additional 48 h; read-out: IC50 H23.
Test [9] concerns H460. As to the kind of experiment: Dose response study (Alamar Blue), H460. Particulars: Homo sapiens, NCI-H460; H460; 12 point doubling dilution 10 uM to 5 nM; 48 h treatment, alamar blue additional 48 h; read-out: IC50 H460. Type of test: cell-based.
The test system of test [10] is H2444. The test can be described thus: Dose response study (Alamar Blue), H2444. Type of test: cell-based. Particulars: Homo sapiens, NCI-H2444; H2444; 12 point doubling dilution 10 uM to 5 nM; 48 h treatment, alamar blue additional 48 h; read-out: IC50 H2444.
Setting [11] is: NCI-H1650, 48 h, H1650, 12 point doubling dilution 10 uM to 5 nM, 48 h treatment, alamar blue additional 48 h, read-out: IC50 H1650.
Setting [12] is: NCI-H1650, dose response 10 M to 5 nM, IC50, read-out: Dose Response (uM) H1650.
[13] abbreviates: NCI-H2030, 48 h, H2030, 12 point doubling dilution 10 uM to 5 nM, 48 h treatment, alamar blue additional 48 h, read-out: IC50 H2030.
Setting [14] is: NCI-H2030, dose response 10 M to 5 nM, IC50, read-out: Dose Response (uM) H2030.
[15] abbreviates: NCI-H3255, 48 h, H3255, 12 point doubling dilution 10 uM to 5 nM, 48 h treatment, alamar blue additional 48 h, read-out: IC50 H3255.
[16] abbreviates: NCI-H3255, dose response 10 M to 5 nM, IC50, read-out: Dose Response (uM) H3255.

On to `Cc1ccc(-n2ncc(Cl)c(Cl)c2=O)cc1C` [compound 257019], for which the IC50 in [1] (setting [11]) amounted to 4.15 µM; in test [1] (setting [12]) it was 2.4 µM; in test [2] (setting [13]) it was 0.8 µM; in [2] (setting [14]), 0.53 µM; in [3] (setting [15]), 2.01 µM; in [3] (setting [16]), 1.23 µM. Also, the IC50 in [4] turned out to be 620 nM; in test [5] it was 670 nM; in test [6], 1980 nM; in test [7] it was 4200 nM; in test [8] it was 690 nM; in test [9] it was 4090 nM. The IC50 in test [10] is 820 nM.
Take `COc1cccc(-n2ncc(Cl)c(Cl)c2=O)c1` [compound 267061]: the IC50 in test [1] (setting [11]) was 1.96 µM; in [1] (setting [12]) it was 3.52 µM; in [2] (setting [13]), 0.36 µM; in test [2] (setting [14]) it was 0.72 µM; in test [3] (setting [15]), 1.2 µM; in [3] (setting [16]) it was 1.34 µM. Besides, the IC50 was 290 nM in test [4]; 260 nM in test [5]; 850 nM in test [6]; 1760 nM in [7]; 280 nM in [8]; 1630 nM in test [9]. Moreover, in test [10], the IC50 was found to be 370 nM.
Consider `O=c1c(Cl)c(Cl)cnn1Cc1ccccc1` [compound 267069], for which the IC50 is over 10 µM in test [1] (setting [11]); over 10 µM in test [1] (setting [12]); 4.01 µM in test [2] (setting [13]); 6.83 µM in test [2] (setting [14]); over 10 µM in test [3] (setting [15]); 6.5 µM in test [3] (setting [16]). Moreover, the IC50 in test [4] is 5250 nM; in [5] it was 2570 nM; in [6], 6210 nM; in test [7], 7390 nM; in test [8], 2530 nM; in test [9] it was over 10000 nM. In addition, the IC50 in [10] amounted to 4130 nM.
For the molecule `O=c1c(Cl)c(Cl)cnn1-c1ccc(Cl)cc1Cl` [compound 267077], the IC50 was over 10 µM in test [1] (setting [11]); 0.56 µM in test [1] (setting [12]); 3.55 µM in test [2] (setting [13]); 1.27 µM in [2] (setting [14]); 8.75 µM in [3] (setting [15]); 4950 nM in test [4]. The IC50 was 2680 nM in [5]; over 10000 nM in test [6]; over 10000 nM in test [7]; 1720 nM in test [8]; over 10000 nM in test [9]; 4680 nM in [10].

For the origin of these results see patent US20100210649A1, “PYRIDAZINONES AND FURAN-CONTAINING COMPOUNDS” (Sloan-Kettering Institute for Cancer Research, priority 2006, published 2010).
